In assay [1] the test system is K. pneumoniae ATCC BAA-2146. Put plainly: MIC, agar plate dilution method, K. pneumoniae ATCC BAA-2146. Conditions: for MIC: Klebsiella pneumoniae, ATCCBAA2146, K. pneumoniae ATCC BAA-2146, NDM-producing strain, read-out: minimal inhibitory concentration (MIC). The class given is cell-based, Klebsiella pneumoniae. The method in brief:
(§1)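 Read-out is the lowest compound concentration inhibiting growth (MIC, μg/mL), obtained by the agar plate dilution procedure of the Japan Society of Chemotherapy.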

A further assay has as its system P. aeruginosa PAO1/GN315. Put plainly: MIC, agar plate dilution method, P. aeruginosa PAO1/GN315. The class given is cell-based, Pseudomonas aeruginosa. Conditions: for MIC: Pseudomonas aeruginosa, read-out: minimal inhibitory concentration (MIC), P. aeruginosa PAO1/GN315, AMK-resistant. The method in brief:
as §1

Another assay deals with E. faecium ATCC19434. In words: MIC, agar plate dilution method, E. faecium ATCC19434. The class given is cell-based, Enterococcus faecium. The settings on record: for MIC: Enterococcus faecium, ATCC19434, E. faecium ATCC19434, read-out: minimal inhibitory concentration (MIC). The method in brief: as §1
The test system of the next assay is S. marcescens GN6944. Put plainly: MIC, agar plate dilution method, S. marcescens GN6944. The class given is cell-based, Serratia marcescens. Conditions: S. marcescens GN6944, GM-resistant; for MIC: Serratia marcescens, read-out: minimal inhibitory concentration (MIC). The method in brief: as §1
In a further assay the test system is P. aeruginosa MSC01035. Put plainly: MIC, agar plate dilution method, P. aeruginosa MSC01035. The class given is cell-based, Pseudomonas aeruginosa. Conditions: P. aeruginosa MSC01035, ABK-resistant; for MIC: Pseudomonas aeruginosa, read-out: minimal inhibitory concentration (MIC). The method in brief:
as §1

A further assay concerns S. aureus RN4220. Put plainly: MIC, agar plate dilution method, S. aureus RN4220. The class given is cell-based, Staphylococcus aureus. Conditions: for MIC: Staphylococcus aureus, RN4220, S. aureus RN4220, Sensitive bacterium, read-out: minimal inhibitory concentration (MIC). The method in brief:
as §1

Assay [2] has as its system A. baumannii ATCC BAA-1710. Put plainly: MIC, agar plate dilution method, A. baumannii ATCC BAA-1710. Conditions: for MIC: Acinetobacter baumannii, ATCCBAA1710, A. baumannii ATCC BAA-1710, MDRA, read-out: minimal inhibitory concentration (MIC). The class given is cell-based, Acinetobacter baumannii. The method in brief: as §1
The test system of a further assay is S. marcescens TH-0447. In words: MIC, agar plate dilution method, S. marcescens TH-0447. The class given is cell-based, Serratia marcescens. The settings on record: for MIC: Serratia marcescens, TH0447, S. marcescens TH-0447, AMK-resistant, read-out: minimal inhibitory concentration (MIC). The method in brief:
as §1

For assay [3], the system named is K. pneumoniae ATCC BAA-1705. In words: MIC, agar plate dilution method, K. pneumoniae ATCC BAA-1705. The class given is cell-based, Klebsiella pneumoniae. Conditions: for MIC: Klebsiella pneumoniae, ATCCBAA1705, K. pneumoniae ATCC BAA-1705, KPC-producing strain, read-out: minimal inhibitory concentration (MIC). The method in brief: as §1
In a further assay the test system is E. coli JM109/pMW218. In words: MIC, agar plate dilution method, E. coli JM109/pMW218. The class given is cell-based, Escherichia coli. Conditions: for MIC: Escherichia coli, JM109/PMW218, E. coli JM109/pMW218, Sensitive bacterium, read-out: minimal inhibitory concentration (MIC). The method in brief: as §1
The next assay concerns S. aureus MF490. Put plainly: MIC, agar plate dilution method, S. aureus MF490. The class given is cell-based, Staphylococcus aureus. The settings on record: for MIC: Staphylococcus aureus, MRSA, read-out: minimal inhibitory concentration (MIC). The method in brief:
as §1

The test system of the next assay is P. aeruginosa PAO1. In words: MIC, agar plate dilution method, P. aeruginosa PAO1. The class given is cell-based, Pseudomonas aeruginosa. The settings on record: for MIC: Pseudomonas aeruginosa, PAO1, P. aeruginosa PAO1, Sensitive bacterium, read-out: minimal inhibitory concentration (MIC). The method in brief:
as §1

Another assay relates to P. aeruginosa MSC17707. Put plainly: MIC, agar plate dilution method, P. aeruginosa MSC17707. The class given is cell-based, Pseudomonas aeruginosa. The settings on record: for MIC: Pseudomonas aeruginosa, MSC17707, P. aeruginosa MSC17707, AMK-resistant, read-out: minimal inhibitory concentration (MIC). The method in brief: as §1
The subject of another assay is S. aureus RN4220/pMS520. Put plainly: MIC, agar plate dilution method, S. aureus RN4220/pMS520. The class given is cell-based, Staphylococcus aureus. The settings on record: for MIC: Staphylococcus aureus, MRSA, read-out: minimal inhibitory concentration (MIC), S. aureus RN4220/pMS520, MRSA. The method in brief:
as §1

Values after ≈ are worked out from the molar mass of the structure shown.

With `CNC1C(O[C@H]2OC(CO)[C@@H](NC(CN)CN)[C@H](O)C2O)O[C@H]2CC(N)[C@@H](O[C@H]3CC[C@H](N)CC3N)OC2C1O` (some centres unmarked) [Compound T2-d, 4″-N-(1,3-diaminopropan-2-yl)-5,6-dideoxyapramycin], the MIC amounted to 2 µg/mL (≈ 3.45 µM) in assay [1]; 4 µg/mL (≈ 6.9 µM) with P. aeruginosa PAO1/GN315; 4 µg/mL (≈ 6.9 µM) in the assay on E. faecium ATCC19434; 8 µg/mL (≈ 13.8 µM) in the assay with S. marcescens GN6944; 8 µg/mL (≈ 13.8 µM) in the assay on P. aeruginosa MSC01035; 2 µg/mL (≈ 3.45 µM) in the assay on S. aureus RN4220. For the same molecule, the MIC came to 8 µg/mL (≈ 13.8 µM) in [2]; 8 µg/mL (≈ 13.8 µM) with S. marcescens TH-0447; 2 µg/mL (≈ 3.45 µM) in assay [3]; 1 µg/mL (≈ 1.73 µM) in the assay on E. coli JM109/pMW218; 4 µg/mL (≈ 6.9 µM) in the assay with S. aureus MF490; 4 µg/mL (≈ 6.9 µM) in the assay with P. aeruginosa PAO1. The MIC is 8 µg/mL (≈ 13.8 µM) in the assay on P. aeruginosa MSC17707 and 1 µg/mL (≈ 1.73 µM) in the assay on S. aureus RN4220/pMS520.

Consider `CNC1C(O[C@H]2OC(CO)[C@@H](NC(=N)N)[C@H](O)C2O)O[C@H]2CC(N)[C@@H](O[C@H]3CC[C@H](N)CC3N)OC2C1O` (some centres unmarked) [Compound T2-e, 4″-deamino-5,6-dideoxy-4″-guanidinoapramycin], for which the MIC in [1] came to 0.5 µg/mL (≈ 0.91 µM); with P. aeruginosa PAO1/GN315, 4 µg/mL (≈ 7.28 µM); with E. faecium ATCC19434, 4 µg/mL (≈ 7.28 µM); with S. marcescens GN6944 it was 2 µg/mL (≈ 3.64 µM); with P. aeruginosa MSC01035, 8 µg/mL (≈ 14.6 µM); in the assay with S. aureus RN4220, 1 µg/mL (≈ 1.82 µM). The MIC in assay [2] is 4 µg/mL (≈ 7.28 µM); in the assay on S. marcescens TH-0447 it was 4 µg/mL (≈ 7.28 µM); in [3], 1 µg/mL (≈ 1.82 µM); in the assay with E. coli JM109/pMW218, 0.5 µg/mL (≈ 0.91 µM); in the assay on S. aureus MF490 it was 2 µg/mL (≈ 3.64 µM); in the assay with P. aeruginosa PAO1 it was 4 µg/mL (≈ 7.28 µM). Besides, the MIC was found to be 4 µg/mL (≈ 7.28 µM) in the assay with P. aeruginosa MSC17707 and 0.5 µg/mL (≈ 0.91 µM) with S. aureus RN4220/pMS520.

`CNC1C(OC2OC(CO)C(NC(=N)N)CC2O)OC2CC(N)C(OC3CC(O)C(N)CC3N)OC2C1O` (centres unmarked) [Compound U4-a, 4″-deamino-5,3″-dideoxy-4″-guanidinoapramycin]: the “minimal inhibitory concentration (MIC)” value came to 0.5 µg/mL (≈ 0.91 µM) in [1] (K. pneumoniae ATCC BAA-2146, NDM-producing strain); 4 µg/mL (≈ 7.28 µM) in the assay on P. aeruginosa PAO1/GN315 (P. aeruginosa PAO1/GN315, AMK-resistant); 4 µg/mL (≈ 7.28 µM) with E. faecium ATCC19434 (E. faecium ATCC19434); 2 µg/mL (≈ 3.64 µM) in the assay on S. marcescens GN6944; 8 µg/mL (≈ 14.6 µM) in the assay on P. aeruginosa MSC01035; 1 µg/mL (≈ 1.82 µM) in the assay with S. aureus RN4220 (S. aureus RN4220, Sensitive bacterium). Moreover, the “minimal inhibitory concentration (MIC)” value in assay [2] (A. baumannii ATCC BAA-1710, MDRA) came out at 8 µg/mL (≈ 14.6 µM); in the assay with S. marcescens TH-0447 (S. marcescens TH-0447, AMK-resistant), 4 µg/mL (≈ 7.28 µM); in assay [3] (K. pneumoniae ATCC BAA-1705, KPC-producing strain) it was 1 µg/mL (≈ 1.82 µM); in the assay on E. coli JM109/pMW218 (E. coli JM109/pMW218, Sensitive bacterium) it was 0.5 µg/mL (≈ 0.91 µM); in the assay with S. aureus MF490 (S. aureus MF490, MRSA), 4 µg/mL (≈ 7.28 µM); with P. aeruginosa PAO1 (P. aeruginosa PAO1, Sensitive bacterium) it was 4 µg/mL (≈ 7.28 µM). Further, the “minimal inhibitory concentration (MIC)” value with P. aeruginosa MSC17707 (P. aeruginosa MSC17707, AMK-resistant) turned out to be 8 µg/mL (≈ 14.6 µM); with S. aureus RN4220/pMS520 (S. aureus RN4220/pMS520, MRSA), 1 µg/mL (≈ 1.82 µM).

Regarding `CNCC(=O)N[C@@H]1C(CO)O[C@H](OC2O[C@H]3CC(N)[C@@H](O[C@@H]4C(N)C[C@@H](N)C(O)[C@H]4O)OC3C(O)C2NC)C(O)[C@H]1O` (some centres unmarked) [Compound V1-b, 4″-N-sarcosylapramycin], the MIC came to 1 µg/mL (≈ 1.64 µM) in assay [1]; 4 µg/mL (≈ 6.55 µM) in the assay with P. aeruginosa PAO1/GN315; 16 µg/mL (≈ 26.2 µM) with E. faecium ATCC19434; 8 µg/mL (≈ 13.1 µM) in the assay on S. marcescens GN6944; 4 µg/mL (≈ 6.55 µM) with P. aeruginosa MSC01035; 2 µg/mL (≈ 3.28 µM) with S. aureus RN4220. The MIC is 8 µg/mL (≈ 13.1 µM) in assay [2]; 16 µg/mL (≈ 26.2 µM) with S. marcescens TH-0447; 2 µg/mL (≈ 3.28 µM) in assay [3]; 1 µg/mL (≈ 1.64 µM) in the assay on E. coli JM109/pMW218; 8 µg/mL (≈ 13.1 µM) in the assay on S. aureus MF490; 4 µg/mL (≈ 6.55 µM) in the assay on P. aeruginosa PAO1. In addition, the MIC with P. aeruginosa MSC17707 was 4 µg/mL (≈ 6.55 µM); with S. aureus RN4220/pMS520 it was 2 µg/mL (≈ 3.28 µM).
